Measured values as given in PubChem BioAssay (NCI).
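Cells were grown in 96-well plates and exposed to each compound for 48 hours at five concentrations; endpoints were interpolated linearly between bracketing concentrations, or set to the highest concentration if not reached. GI50: concentration for 50% inhibition of growth. TGI denotes the concentration required for complete inhibition of growth.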

How the values were obtained:
Assay in all cases: NCI-60 cell line screen, 48 h
[1] = test system: SN12C renal
[2] = test system: HOP-92 NSCLC
[3] = test system: HS 578T breast
[4] = test system: MDA-N
[5] = test system: HCC-2998 colon
[6] = test system: SR leukemia
[7] = test system: RXF 393 renal
[8] = test system: SF-268 CNS
[9] = test system: HCT-116 colon
[10] = test system: CCRF-CEM leukemia
[11] = test system: UACC-257 melanoma
[12] = test system: KM12 colon
[13] = test system: NCI/ADR-RES ovarian
[14] = test system: A549 NSCLC
[15] = test system: COLO 205 colon
[16] = test system: NCI-H226 lung
[17] = test system: PC-3 prostate
[18] = test system: LOX IMVI melanoma
[19] = test system: NCI-H522 lung
[20] = test system: U251 CNS
[21] = test system: SF-295 CNS
[22] = test system: A498 renal
[23] = test system: SW-620 colon
[24] = test system: SNB-19 CNS
[25] = test system: MCF7 breast
[26] = test system: NCI-H23 lung
[27] = test system: MDA-MB-231 breast
[28] = test system: NCI-H460 lung
[29] = test system: SK-OV-3 ovarian
[30] = test system: SK-MEL-5 melanoma
[31] = test system: SK-MEL-28 melanoma
[32] = test system: TK-10 renal
[33] = test system: DU-145 prostate
[34] = test system: SNB-75 CNS
[35] = test system: OVCAR-8 ovarian
[36] = test system: HT29 colon
[37] = test system: HCT-15 colon
[38] = test system: K-562 leukemia
[39] = test system: UO-31 renal
[40] = test system: MDA-MB-435
[41] = test system: MOLT-4 leukemia
[42] = test system: ACHN renal
[43] = test system: UACC-62 melanoma
[44] = test system: BT-549 breast
[45] = test system: SK-MEL-2 melanoma
[46] = test system: SF-539 CNS
[47] = test system: OVCAR-4 ovarian
[48] = test system: IGROV1 ovarian
[49] = test system: OVCAR-5 ovarian
[50] = test system: HL-60(TB) leukemia
[51] = test system: OVCAR-3 ovarian
[52] = test system: T-47D breast
[53] = test system: 786-0 renal
[54] = test system: HOP-62 NSCLC
[55] = test system: RPMI-8226 leukemia
[56] = test system: CAKI-1 renal
[57] = test system: M14 melanoma
[58] = test system: EKVX NSCLC
[59] = test system: MALME-3M melanoma

Structure (SMILES): CCOC(=O)C1(CO)CSCCSC1
- TGI [1]: > 100 µM
- TGI [2]: > 100 µM
- TGI [3]: > 100 µM
- TGI [4]: > 100 µM
- TGI [5]: > 100 µM
- TGI [6]: > 100 µM
- TGI [7]: > 100 µM
- TGI [8]: > 100 µM
- TGI [9]: > 100 µM
- TGI [10]: > 100 µM
- TGI [11]: > 100 µM
- TGI [12]: > 100 µM
- TGI [13]: > 100 µM
- TGI [14]: > 100 µM
- TGI [15]: > 100 µM
- TGI [16]: > 100 µM
- TGI [17]: > 100 µM
- TGI [18]: > 100 µM
- TGI [19]: > 100 µM
- TGI [20]: > 100 µM
- TGI [21]: > 100 µM
- TGI [22]: > 100 µM
- TGI [23]: > 100 µM
- TGI [24]: > 100 µM
- TGI [25]: > 100 µM
- TGI [26]: > 100 µM
- TGI [27]: > 100 µM
- TGI [28]: > 100 µM
- TGI [29]: > 100 µM
- TGI [30]: > 100 µM
- TGI [31]: > 100 µM
- TGI [32]: > 100 µM
- TGI [33]: > 100 µM
- TGI [34]: > 100 µM
- TGI [35]: > 100 µM
- TGI [36]: > 100 µM
- TGI [37]: > 100 µM
- TGI [38]: > 100 µM
- TGI [39]: > 100 µM
- TGI [40]: > 100 µM
- TGI [41]: > 100 µM
- TGI [42]: > 100 µM

Structure (SMILES): CC(=O)OC1CC(O)C23COC(O)C1(C)C2CC(O)C1(C)C3C(=O)C(O)C2(C)C(c3ccoc3)CC3OC321 (stereo not drawn)
- GI50 [43]: < 0.01 µM
- TGI [43]: < 0.0129 µM
- GI50 [1]: > 100 µM
- TGI [1]: > 100 µM
- GI50 [2]: 0.911 µM
- TGI [2]: > 100 µM
- GI50 [4]: 0.0178 µM
- TGI [4]: > 100 µM
- GI50 [44]: 0.071 µM
- TGI [44]: > 100 µM
- GI50 [5]: 0.42 µM
- TGI [5]: > 100 µM
- TGI [45]: > 100 µM
- GI50 [6]: < 0.01 µM
- TGI [6]: 0.0544 µM
- GI50 [7]: > 100 µM
- TGI [7]: > 100 µM
- GI50 [8]: 2.2 µM
- TGI [8]: > 100 µM
- GI50 [9]: < 0.01 µM
- TGI [9]: > 100 µM
- GI50 [10]: < 0.0162 µM
- TGI [10]: > 100 µM
- GI50 [11]: 0.16 µM
- TGI [11]: 5.51 µM
- GI50 [12]: < 0.01 µM
- TGI [12]: > 100 µM
- GI50 [13]: 71.9 µM
- TGI [13]: > 100 µM
- GI50 [14]: 0.0674 µM
- TGI [14]: > 100 µM
- GI50 [15]: < 0.01 µM
- TGI [15]: > 100 µM
- GI50 [16]: < 0.0188 µM
- TGI [16]: 18.4 µM
- GI50 [17]: 0.0114 µM
- TGI [17]: > 100 µM
- GI50 [18]: < 0.01 µM
- TGI [18]: 12.5 µM
- GI50 [46]: 0.14 µM
- TGI [46]: > 100 µM
- TGI [47]: > 100 µM
- GI50 [48]: 0.377 µM
- TGI [48]: > 100 µM
- GI50 [19]: 0.401 µM
- TGI [19]: > 100 µM
- GI50 [49]: > 36 µM
- TGI [49]: > 100 µM
- GI50 [20]: 0.379 µM
- TGI [20]: > 100 µM
- GI50 [21]: 0.0522 µM
- GI50 [22]: > 100 µM
- TGI [22]: > 100 µM
- GI50 [50]: < 0.01 µM
- TGI [50]: > 100 µM
- GI50 [23]: 0.0323 µM
- TGI [23]: > 100 µM
- GI50 [24]: > 100 µM
- TGI [24]: > 100 µM
- GI50 [51]: 41.2 µM
- TGI [51]: > 100 µM
- GI50 [25]: > 100 µM
- TGI [25]: > 100 µM
- TGI [26]: > 100 µM
- GI50 [27]: > 28.7 µM
- TGI [27]: > 100 µM
- GI50 [52]: 0.151 µM
- TGI [52]: > 100 µM
- GI50 [28]: < 0.0486 µM
- TGI [28]: > 100 µM
- GI50 [29]: > 100 µM
- TGI [29]: > 100 µM
- GI50 [30]: < 0.01 µM
- GI50 [31]: > 100 µM
- TGI [31]: > 100 µM
- GI50 [32]: > 100 µM
- TGI [32]: > 100 µM
- GI50 [33]: 0.9 µM
- TGI [33]: > 100 µM
- GI50 [34]: < 0.0397 µM
- TGI [34]: > 100 µM
- GI50 [53]: 0.0897 µM
- TGI [53]: > 64.2 µM
- GI50 [54]: 0.685 µM
- TGI [54]: > 100 µM
- GI50 [55]: < 0.01 µM
- TGI [55]: 0.0237 µM
- GI50 [35]: 0.191 µM
- GI50 [36]: < 0.01 µM
- TGI [36]: > 33.3 µM
- GI50 [37]: 1.26 µM
- TGI [37]: > 100 µM
- GI50 [56]: 2.97 µM
- TGI [56]: > 100 µM
- GI50 [38]: < 0.01 µM
- GI50 [39]: 3.08 µM
- TGI [39]: > 41.4 µM
- GI50 [40]: < 0.0152 µM
- TGI [40]: > 100 µM
- GI50 [41]: < 0.01 µM
- TGI [41]: 0.0127 µM
- GI50 [42]: 0.685 µM
- TGI [42]: > 100 µM
- GI50 [57]: 0.0793 µM
- TGI [57]: > 59.8 µM
- GI50 [58]: 1.94 µM
- TGI [58]: > 100 µM

Structure (SMILES): N#Cc1ccc(NC(=NCC(=O)O)Nc2cccc3ccccc23)cc1
- TGI [43]: > 10 µM
- TGI [1]: > 10 µM
- TGI [4]: > 10 µM
- TGI [5]: > 10 µM
- TGI [6]: > 10 µM
- TGI [7]: > 10 µM
- TGI [8]: > 10 µM
- TGI [10]: > 10 µM
- TGI [11]: > 10 µM
- TGI [12]: > 10 µM
- TGI [14]: > 10 µM
- TGI [15]: > 10 µM
- TGI [17]: > 10 µM
- TGI [48]: > 10 µM
- TGI [21]: > 10 µM
- TGI [50]: > 10 µM
- TGI [23]: > 10 µM
- TGI [59]: > 10 µM
- TGI [25]: > 10 µM
- TGI [26]: > 10 µM
- TGI [27]: > 10 µM
- TGI [52]: > 10 µM
- TGI [29]: > 10 µM
- TGI [30]: > 10 µM
- TGI [31]: > 10 µM
- TGI [32]: > 10 µM
- TGI [33]: > 10 µM
- TGI [34]: > 10 µM
- TGI [53]: > 10 µM
- TGI [54]: > 10 µM
- TGI [55]: > 10 µM
- TGI [35]: > 10 µM
- TGI [36]: > 10 µM
- TGI [37]: > 10 µM
- TGI [56]: > 10 µM
- TGI [38]: > 10 µM
- TGI [41]: > 10 µM
- TGI [57]: > 10 µM
- TGI [58]: > 10 µM

Structure (SMILES): CCCCNC(=S)Nc1nc(C(=O)NNC(=S)NCC)cs1
- TGI [43]: > 100 µM
- TGI [1]: > 100 µM
- TGI [4]: > 100 µM
- TGI [44]: > 100 µM
- TGI [5]: > 100 µM
- TGI [45]: > 100 µM
- TGI [6]: > 100 µM
- TGI [8]: > 100 µM
- TGI [9]: > 100 µM
- TGI [10]: > 100 µM
- TGI [11]: > 100 µM
- TGI [12]: > 100 µM
- TGI [13]: > 100 µM
- TGI [14]: > 100 µM
- TGI [15]: > 100 µM
- TGI [17]: > 100 µM
- TGI [18]: > 100 µM
- TGI [46]: > 100 µM
- TGI [47]: > 100 µM
- TGI [48]: > 100 µM
- TGI [19]: > 100 µM
- TGI [49]: > 100 µM
- TGI [20]: > 100 µM
- TGI [21]: > 100 µM
- TGI [22]: > 100 µM
- TGI [23]: > 100 µM
- TGI [59]: > 100 µM
- TGI [51]: > 100 µM
- TGI [25]: > 100 µM
- TGI [26]: > 100 µM
- TGI [27]: > 100 µM
- TGI [52]: 71.3 µM
- TGI [29]: > 100 µM
- TGI [30]: > 100 µM
- TGI [32]: > 100 µM
- TGI [33]: > 100 µM
- TGI [34]: > 100 µM
- TGI [53]: > 100 µM
- TGI [54]: > 100 µM
- TGI [55]: > 100 µM
- TGI [35]: > 100 µM
- TGI [36]: > 100 µM
- TGI [37]: > 100 µM
- TGI [56]: > 100 µM
- TGI [39]: > 100 µM
- TGI [40]: > 100 µM
- TGI [41]: > 100 µM
- TGI [42]: > 100 µM
- TGI [57]: > 100 µM
- TGI [58]: > 100 µM
